Test results: patent publication US20080085939A1, “Use Of Sphingolipids For Prevention And Treatment Of Atherosclerosis” (priority 2004, published 2008)

Key:
Format in all cases: cell-based
[1] = test system: LPS-induced TNFα release by macrophage U937 cells; test: Effect of sphingolipids on LPS-induced TNFα release by macrophage U937 cells; conditions: differentiated U937 cells; 1 μg/ml or 10 μg/ml sphingolipid for 30 min, then LPS 1 μg/ml for 4 hours; FIG. 1
Experimental: Undifferentiated U937 cells were grown at 37° C. at 5% (v/v) CO2 and 100% relative humidity in medium consisting of RPMI 1640, and supplemented with 10% Fetal Calf Serum (FCS), 2 mM L-Glutamine, 50 μg/ml Gentamycin and 0.4% Fungizone. The cells were passaged every three days. Finally the cells were transferred to 96-wells microtiter plates. Differentiation was induced by addition of 10 ng/ml PMA (Phorbol 12-myristate 13-acetate). After 24 hours the medium was changed and refreshed every day and the differentiated macrophages were grown for another 3 days at 37° C. The above described differentiated U937 cells were treated for 30 min with 1 μg/ml or 10 μg/ml sphingolipid (1 mg/mL in ethanol). Then the cells were stimulated with LPS (1 μg/ml) for a period of 4 hours. The TNFα release was measured with the TNF-α cytoset™ from Biosource International, Camarillo, Calif., USA.

[2] = test system: NFAT-mediated signal transduction pathway in Jurkat cells (T-cells); test: PMA/ionomycin-induced stimulation of Jurkat cells, NFAT-luciferase reporter; conditions: 10 μg/mL sphingolipid; Jurkat pNFAT-luc; PMA 50 ng/ml and ionomycin 1 μg/ml, 6 hours; FIG. 2
Experimental: (§1) Jurkat cells (T-cells) stably transfected with pNFAT-luc (Clontech, BD Bioscience, Becton, Dickinson and Company, Franklin Lakes, N.J. USA) in which the hygromycin resistance gene was cloned were used. The cells produce the enzyme luciferase under control of the NFAT (nuclear Factor of Activated T cells) promoter. The NFAT-mediated pathways are stimulated in Jurkat cells by PMA and ionomycin. Cells were grown at 37° C. at 5% (v/v) CO2 and 100% relative humidity in medium consisting of RPMI 1640, 10 mM HEPES (N-[2-hydroxyethyl]piperazine-N′-[2-ethanesulfonic acid), 10% FCS, 2 mM L-Glutamine and 1 mM Sodium Pyruvate. The medium was changed every 3 days. Finally the cells were transferred to 96-wells plates.
A cell suspension of 5×10^5 cells/ml in medium without phenol red was transferred to 96 well microtiter plates (200 μL/well). In triplicate sphingolipids were added (1 or 10 μg/mL). After 30 min PMA (50 ng/ml) and ionomycin (1 μg/ml) was added and the cells were incubated during 6 hours. Then 60 μl cell suspension was mixed with 60 μl steady glo reagent (Promega). Luminescence was measured in a Wallac 1450 microbeta liquid scintillation counter.

[3] = test system: Jurkat cells (T-cells); test: Cell proliferation/viability of Jurkat cells, Alamar Blue test; conditions: exposure to sphingolipids
Experimental: as §1
Because sphingolipids can be cytotoxic to cells, the viability of the cells after exposure to the sphingolipids was checked with the Alamar Blue™ (Biosource) test. Almar blue™ (20 μL) and sphingolipids were added simultaneously. The Fluorescence (excitation at 540 nm and emission at 570 nm) was measured in a Wallac 1420 Victor^2 multilabel counter (Perkin Elmer Wellesley, Mass., USA).

Compound	release of TNFα by LPS-stimulated macrophages [1]	PMA/ionomycin-induced activation of the NFAT-mediated signal transduction pathway (luciferase activity) [2]	cell viability of Jurkat cells (Alamar Blue fluorescence) [3]
CCCCCCCCCCCCCCC[C@@H](O)[C@@H](N)CO [sphinganine]	strongly reduced	completely suppressed	No differences
CCCCCCCCCCCCCC[C@@H](O)[C@@H](O)[C@@H](N)CO [phytosphingosine]	strongly reduced	completely suppressed	No differences
CCCCCCCCCCCCC/C=C/[C@@H](O)[C@@H](N)CO [sphingosine]	strongly reduced	completely suppressed	No differences
